Earlier results as cited in publication PMC7553790 (The Journal of Experimental Medicine, 2020).
Where two headings read alike, the source gives them in different places.

Test system: Aβ42
Settings: cell-based studies

IC50 (read-out: IC50 of Aβ42, ref Rogers et al., 2012) [µM]	IC50 (read-out: IC50 of decreasing Aβ42, ref Imbimbo et al., 2007) [µM]	Compound
> 0.02		O=C(O)[C@H](CC1CCC1)c1cc(Cl)c(OCC(F)(F)F)c(-c2ccc(C(F)(F)F)cc2)c1 [EVP-0015962]
	3.6	O=C(O)C1(c2ccc(-c3ccc(Cl)c(Cl)c3)c(F)c2)CC1 [CHF5074, 1-(3′,4′-Dichloro-2-fluoro[1,1′-biphenyl]-4-yl)-cyclopropanecarboxylic acid]
